# Laboratory results reported in patent publication US20250295639A1, “METHODS FOR TREATING HEART DISEASES” (Cytokinetics, Incorporated, priority 2024, published 2025).
# Key:
# Format in all cases: in vivo, human
# [1] = tested on: patients with symptomatic oHCM; test: SEQUOIA-HCM: cardiac biomarkers NT-proBNP and hs-cTnI
# Description: A further exploratory objective of this trial was to evaluate the effect of aficamten on biomarker levels, as determined by changes from baseline values in NT-pro-BNP, hs-cardiac-TnI and other biomarkers through Week 24. Cardiac biomarkers. Aficamten treatment led to an immediate and significant reduction in both NT-proBNP and hs-cTnI, with substantial lowering of both biomarkers by week 2. […] Biomarker lowering persisted to week 24 when the relative reduction from baseline was-80% (95% CI-83%, −77%, p<0.001) in NT-proBNP and −43% (−49%, […], p<0.001) in hs-cTnI. […] Serum levels of NT-proBNP decreased from baseline to week 24 from 735 (604, 894) ng/L to 143 (120, 171) ng/L in patients receiving aficamten and remained unchanged from 710 (587, 859) ng/L to 717 (596, 863) ng/L in those receiving placebo, while hs-troponin decreased from 17.1 (14.1, 20.8) ng/L to 9.5 (8.0, 11.3) ng/L with aficamten and remained unchanged from 16.6 (13.3, 20.7) to 16.5 (13.7, 19.9) ng/L in placebo (P<0.001 for both comparisons compared to placebo). […] In contrast hs-cTnI reduction reflected 3% (−18%, 30%) of aficamten's effect on pVO2.
# [2] = tested on: patients with symptomatic oHCM; test: SEQUOIA-HCM: patient-reported health status KCCQ-OSS and SAQ-SS
# Description: Effect of Aficamten on Patient-Reported Health Status in Obstructive Hypertrophic Cardiomyopathy. Participants were randomized to aficamten or placebo with standard-of-care therapy for 24 weeks followed by a 4-week washout period. The Kansas City Cardiomyopathy Questionnaire (KCCQ) and Seattle Angina Questionnaire (SAQ) were administered at each study visit. Changes in mean KCCQ Overall Summary score (KCCQ-OSS) and SAQ Summary score (SAQ-SS) from baseline to week 24 were compared by treatment group using linear regression, adjusting for randomization strata. Proportions of patients with clinically important changes were compared.
# [3] = tested on: patients with symptomatic oHCM; test: SEQUOIA-HCM: eligibility for septal reduction therapy (SRT); details: aficamten (32 eligible at entry)
# Description: Eligibility for Septal Reduction Therapy (SRT). At study entry, 61 (22%) patients with oHCM were eligible for SRT based on guideline criteria (LV outflow gradient ≥50 mmHg at rest or Valsalva and NYHA class III or IV), of which 32 (23%) were assigned to aficamten and 29 (20%) to placebo. By week 12, 32 (100%) patients treated with aficamten were no longer guideline-eligible for SRT vs. 7 (24%) patients treated with placebo (P<0.001). At week 24, 28 (88%) patients treated with aficamten were no longer guideline-eligible for SRT vs. 15 (52%) on placebo (P<0.002).
# [4] = tested on: patients with symptomatic oHCM; test: SEQUOIA-HCM: analysis by baseline Valsalva LVOT-G severity (severe <100 mmHg vs very severe ≥100 mmHg); details: for Change in KCCQ CSS, Mean (SD) Change from Baseline / LVOT-G - Rest, Mean (SD) Change from Baseline / LVOT-G - Valsalva, Mean (SD) Change from Baseline / Peak VO2, Mean (SD) Change from Baseline / Change in KCCQ CSS, Adjusted diff / LVOT-G - Rest, Adjusted diff / LVOT-G - Valsalva, Adjusted diff / NT-proBNP, Adjusted diff / Peak VO2, Adjusted diff / Proportional LVOT-G - Rest, Adjusted diff / Proportional LVOT-G - Valsalva, Adjusted diff / hs-cTpI, Adjusted diff: Baseline to Week 24; for Change in KCCQ CSS, Adjusted diff / LVOT-G - Rest, Adjusted diff / LVOT-G - Valsalva, Adjusted diff / NT-proBNP, Adjusted diff / Peak VO2, Adjusted diff / Proportional LVOT-G - Rest, Adjusted diff / Proportional LVOT-G - Valsalva, Adjusted diff / hs-cTpI, Adjusted diff / NYHA FC improvement, Rate difference / Proportion of patients with rest LVOT-G <30 mmHg & Valsalva LVOT-G <50 mmHg, Adjusted diff: vs placebo; for NYHA FC improvement, % of patients / Proportion of patients with rest LVOT-G <30 mmHg & Valsalva LVOT-G <50 mmHg / NYHA FC improvement, Rate difference / Proportion of patients with rest LVOT-G <30 mmHg & Valsalva LVOT-G <50 mmHg, Adjusted diff: Week 24; for proportional reduction from baseline in Valsalva (provoked) LVOT-G / proportional reduction from baseline in resting LVOT-G: week 24
# Description: Patients with Hypertrophic Obstructive Cardiomyopathy and Very Severe Left Ventricular Outflow Tract Obstruction. Patients enrolled in SEQUOIA-HCM (the study of Example 8), the pivotal phase 3 controlled trial of aficamten in adults with symptomatic oHCM, were grouped according to baseline Valsalva LVOT-G (severe obstruction [<100 mmHg] versus very severe obstruction [≥100 mmHg]). The prespecified primary endpoint was the proportional change from baseline to Week 24 in rest and Valsalva LVOT-G in severe versus very severe obstruction groups. Secondary endpoints included change in symptoms, cardiac biomarkers, and exercise capacity by group (Table 14). Of the 282 patients randomized, 209 patients had severe obstruction, and 73 had very severe obstruction. Compared to baseline, there was a profound reduction in resting and provoked obstruction in both groups. By week 24, the proportional reductions (95% CI) from baseline in the severely obstructed cohort were 69% (74 to 63) and 64% (69 to 56), and 73% (81 to 63) and 71% (79 to 61) in the very severe obstruction cohort, but there was no between-group difference (p>0.05). […] The post-titration doses by group were similar, with 81% and 88% in each cohort receiving the 15 mg and 20 mg dose strengths (p=0.21). There were no instances of per protocol down-titration in the very severe obstruction group, and treatment emergent adverse events (TEAE's) were balanced between groups (any TEAE 77 [71%] in severe versus 28 [85%] in very severe obstruction; p=0.60).
# [5] = aficamten arm, week 28 compared with week 24
# [6] = Baseline Valsalva LVOT-G <100 mmHg
# [7] = Baseline Valsalva LVOT-G <100 mmHg, N = 109
# [8] = Baseline Valsalva LVOT-G ≥100mmHg
# [9] = Baseline Valsalva LVOT-G ≥100mmHg, N=33
# [10] = severe obstruction (baseline Valsalva LVOT-G <100 mmHg)
# [11] = very severe obstruction (≥100 mmHg)
smiles,measurement,setting,value
"CCc1nc(-c2ccc3c(c2)CC[C@H]3NC(=O)c2cnn(C)c2)no1 [aficamten, (R)—N-(5-(5-ethyl-1,2,4-oxadiazol-3-yl)-2,3-dihydro-1H-inden-1-yl)-1-methyl-1H-pyrazole-4-carboxamide]",hs-cTnI relative reduction from baseline,[1]; Week 24,−43%
same,patients with 50% relative reduction in hs-troponin,"[1]; aficamten group, week 24",31%
same,patients with ≥50% reduction in NT-proBNP relative to baseline,"[1]; aficamten group, week 24",84%
same,hs-troponin level,"[1]; aficamten, week 24, baseline 17.1 (14.1, 20.8)","9.5 (8.0, 11.3) ng/L"
same,serum level of NT-proBNP,"[1]; aficamten, week 24, baseline 735 (604, 894)","143 (120, 171) ng/L"
same,NT-proBNP and hs-cTnI concentrations after cessation of aficamten,[1]; after the treatment period,returning to baseline values
same,NT-proBNP reduction,[1]; week 8,79%
same,hs-cTnI reduction,[1]; week 8,41%
same,change in KCCQ-OSS after treatment withdrawal,[2]; [5],−16.2±19.0
same,change in SAQ-OSS after treatment withdrawal,[2]; [5],−17.4±21.4
same,24-week improvement in KCCQ-OSS (mean±SD),[2]; aficamten group,13.3±16.3
same,24-week improvement in SAQ-SS (mean±SD),[2]; aficamten group,11.6±17.4
same,patients with very large improvements (≥20 points) in KCCQ-OSS,"[2]; aficamten-treated, week 24",29.7%
same,patients with very large improvements (≥20 points) in SAQ-SS,"[2]; aficamten-treated, week 24",31.2%
same,"heterogeneity of treatment benefit (KCCQ-OS, SAQ-SS) across subgroups incl. beta-blocker use at baseline","[2]; human, in vivo",No heterogeneity of treatment benefit
same,SAQ-SS improvement with aficamten,[2]; subgroup baseline SAQ-SS 75-100,4.2
same,greater change with aficamten in SAQ-SS,[2]; subgroup baseline SAQ-SS<50,15.6 points
same,"very large improvement in KCCQ-OSS, NNT",[2]; vs placebo,5.8
same,"very large improvement in SAQ-SS, NNT",[2]; vs placebo,5.8
same,SRT-eligible patients no longer guideline-eligible for SRT,[3]; week 12,100%
same,SRT-eligible patients no longer guideline-eligible for SRT,[3]; week 24,88%
same,"Change in KCCQ CSS, Mean (SD) Change from Baseline",[4]; [6],12
same,"LVOT-G - Rest, Mean (SD) Change from Baseline",[4]; [6],−28 ± 25 mmHg
same,"LVOT-G - Valsalva, Mean (SD) Change from Baseline",[4]; [6],−38 ± 31 mmHg
same,"Peak VO2, Mean (SD) Change from Baseline",[4]; [6],1.8 ± 3.2 mL/min/kg
same,"Change in KCCQ CSS, Adjusted diff",[4]; [6],+8
same,"LVOT-G - Rest, Adjusted diff",[4]; [6],−35 mmHg
same,"LVOT-G - Valsalva, Adjusted diff",[4]; [6],−43 mmHg
same,"NT-proBNP, Adjusted diff",[4]; [6],−79%
same,"Peak VO2, Adjusted diff",[4]; [6],+1.6 mL/kg/min
same,"Proportional LVOT-G - Rest, Adjusted diff",[4]; [6],−69%
same,"Proportional LVOT-G - Valsalva, Adjusted diff",[4]; [6],−64%
same,"hs-cTpI, Adjusted diff",[4]; [6],−45%
same,"NYHA FC improvement, % of patients",[4]; [7],(62%)
same,Proportion of patients with rest LVOT-G <30 mmHg & Valsalva LVOT-G <50 mmHg,[4]; [7],(73%)
same,"NYHA FC improvement, Rate difference",[4]; [6],+38.2%
same,"Proportion of patients with rest LVOT-G <30 mmHg & Valsalva LVOT-G <50 mmHg, Adjusted diff",[4]; [6],+63.7%
same,"Change in KCCQ CSS, Mean (SD) Change from Baseline",[4]; [8],9
same,"LVOT-G - Rest, Mean (SD) Change from Baseline",[4]; [8],−60 ± 29 mmHg
same,"LVOT-G - Valsalva, Mean (SD) Change from Baseline",[4]; [8],−82 ± 38 mmHg
same,"Peak VO2, Mean (SD) Change from Baseline",[4]; [8],1.6 ± 2.8 mL/min/kg
same,"Change in KCCQ CSS, Adjusted diff",[4]; [8],+4
same,"LVOT-G - Rest, Adjusted diff",[4]; [8],−52 mmHg
same,"LVOT-G - Valsalva, Adjusted diff",[4]; [8],−68 mmHg
same,"NT-proBNP, Adjusted diff",[4]; [8],−85%
same,"Peak VO2, Adjusted diff",[4]; [8],+1.8 mL/kg/min
same,"Proportional LVOT-G - Rest, Adjusted diff",[4]; [8],−73%
same,"Proportional LVOT-G - Valsalva, Adjusted diff",[4]; [8],−71%
same,"hs-cTpI, Adjusted diff",[4]; [8],−34%
same,"NYHA FC improvement, % of patients",[4]; [9],(49%)
same,Proportion of patients with rest LVOT-G <30 mmHg & Valsalva LVOT-G <50 mmHg,[4]; [9],(52%)
same,"NYHA FC improvement, Rate difference",[4]; [8],+22.4%
same,"Proportion of patients with rest LVOT-G <30 mmHg & Valsalva LVOT-G <50 mmHg, Adjusted diff",[4]; [8],+51.2%
same,proportional reduction from baseline in Valsalva (provoked) LVOT-G,[4]; [10],64%
same,proportional reduction from baseline in resting LVOT-G,[4]; [10],69%
same,proportional reduction from baseline in Valsalva (provoked) LVOT-G,[4]; [11],71%
same,proportional reduction from baseline in resting LVOT-G,[4]; [11],73%
